Test results taken from ChEMBL document CHEMBL5252612, “A novel selective estrogen receptor degrader induces cell cycle arrest in breast cancer via ERα degradation and the autophagy-lysosome pathway” (Bioorg Med Chem, 2023).
Calls of active or inactive are those of the source. No cut-off for these calls is given here.

Columns and labels:
[1] = system: T47D; assay: Induction of cell cycle arrest in human T47D cells assessed as proportion of cells at S phase at 1 uM incubated for 24 hrs by flow cytometry (reference value: 15.3%); assay type: functional
[2] = system: MCF7; assay: Induction of apoptosis and necrosis in human MCF7 cells assessed as live cells at 20 uM incubated for 48 hrs by AnnexinV-FITC/PI staining based flow cytometry (reference value: 92.97%); assay type: functional
[3] = system: T47D; assay: Induction of cell cycle arrest in human T47D cells overexpressing MYC assessed as proportion of cells at G2 phase at 10 uM incubated for 24 hrs by flow cytometry (reference value: 48.5%); assay type: functional
[4] = system: MCF7; assay: Antitumor activity against human MCF7 cells xenografted in BALB/c nude mouse assessed as reduction in tumor weight at 2 to 4 mg/kg, ip administered every other day; assay type: functional, organism-based; conditions: dose 2-4 mg/kg
[5] = system: T47D; assay: Downregulation of ER-alpha mRNA expression in human T47D cells by RT-qPCR analysis; assay type: functional, cell-based
[6] = system: T47D; assay: Induction of apoptosis and necrosis in human T47D cells assessed as live cells at 20 uM incubated for 48 hrs by AnnexinV-FITC/PI staining based flow cytometry (reference value: 96.26%); assay type: functional
[7] = Induction of cell cycle arrest in tamoxifen-resistant human LCC2 cells assessed as proportion of cells at G1 phase at 1 uM by flow cytometry (reference value: 47.4%); assay type: functional
[8] = system: T47D; assay: Induction of autophagy in human T47D cells assessed as downregulation of MYC protein expression at 5 to 10 uM incubated for 24 hrs in presence of autophagy inhibitor, CQ by western blot analysis; assay type: functional, cell-based; conditions: dose 5-10 µM
[9] = Induction of cell cycle arrest in tamoxifen-resistant human LCC2 cells assessed as proportion of cells at S phase at 5 uM by flow cytometry (reference value: 28.4%); assay type: functional
[10] = system: T47D; assay: Induction of autophagy in human T47D cells assessed as upregulation of MAP1LC3B expression at 10 uM incubated for 12 hrs by RNA-seq analysis; assay type: functional, cell-based
[11] = Induction of cell cycle arrest in tamoxifen-resistant human LCC2 cells assessed as proportion of cells at G1 phase at 5 uM by flow cytometry (reference value: 47.4%); assay type: functional
[12] = system: T47D; assay: Induction of cell cycle arrest in human T47D cells transfected with empty vector assessed as proportion of cells at G1 phase at 10 uM incubated for 24 hrs by flow cytometry (reference value: 17.1%); assay type: functional
[13] = system: T47D; assay: Induction of cell cycle arrest in human T47D cells overexpressing MYC assessed as proportion of cells at G1 phase at 10 uM incubated for 24 hrs by flow cytometry (reference value: 22.1%); assay type: functional
[14] = system: T47D; assay: Induction of autophagy in human T47D cells overexpressing ESR1 assessed as increase in LC3 protein expression by western blot analysis; assay type: functional, cell-based
[15] = system: MCF7; assay: Antitumor activity against human MCF7 cells xenografted in BALB/c nude mouse assessed as reduction in tumor volume at 2 to 4 mg/kg, ip administered every other day by caliper analysis; assay type: functional, organism-based; conditions: dose 2-4 mg/kg
[16] = system: T47D; assay: Induction of cell cycle arrest in human T47D cells assessed as proportion of cells at G2 phase at 1 uM incubated for 24 hrs by flow cytometry (reference value: 24.4%); assay type: functional
[17] = target: T1, Estrogen receptor (Homo sapiens) (UniProt P03372); assay: Induction of ER-alpha degradation in human T47D cells assessed as decrease in ER-alpha protein expression in presence of autophagy inhibitor, CQ by western blot analysis; assay type: cell-based
T1 sequence (whole entry): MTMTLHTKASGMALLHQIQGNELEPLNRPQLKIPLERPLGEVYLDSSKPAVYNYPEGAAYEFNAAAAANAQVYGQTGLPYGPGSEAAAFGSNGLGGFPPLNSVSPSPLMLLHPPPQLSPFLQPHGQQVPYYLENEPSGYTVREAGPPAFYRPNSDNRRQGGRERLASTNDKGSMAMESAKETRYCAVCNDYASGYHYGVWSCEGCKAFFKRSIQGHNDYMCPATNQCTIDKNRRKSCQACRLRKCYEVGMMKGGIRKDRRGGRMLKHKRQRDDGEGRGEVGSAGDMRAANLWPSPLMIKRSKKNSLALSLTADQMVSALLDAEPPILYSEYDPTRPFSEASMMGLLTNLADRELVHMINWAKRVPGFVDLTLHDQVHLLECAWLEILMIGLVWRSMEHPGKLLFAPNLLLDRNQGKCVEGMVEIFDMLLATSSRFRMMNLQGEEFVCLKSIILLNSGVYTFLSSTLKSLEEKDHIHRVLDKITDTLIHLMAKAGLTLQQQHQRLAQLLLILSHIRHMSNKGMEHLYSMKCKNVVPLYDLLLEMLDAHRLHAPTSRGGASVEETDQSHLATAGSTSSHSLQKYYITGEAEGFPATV

[18] = target: T1, Estrogen receptor (Homo sapiens); assay: Induction of ER-alpha degradation in human T47D cells assessed as decrease in MYC protein expression at 10 uM incubated for 24 hrs by western blot analysis; assay type: cell-based
[19] = target: T1, Estrogen receptor (Homo sapiens); assay: Induction of ER-alpha degradation in tamoxifen-resistant human LCC2 cells assessed as decrease in ER-alpha protein expression at 10 uM by western blot analysis; assay type: cell-based
[20] = system: MCF7; assay: Induction of apoptosis and necrosis in human MCF7 cells assessed as live cells at 10 uM incubated for 48 hrs by AnnexinV-FITC/PI staining based flow cytometry (reference value: 92.97%); assay type: functional

- Activity [17]: Active
- Activity [18]: Active
- Activity [19]: Active
Compound: COc1ccc(N(CC(F)(F)F)S(=O)(=O)C2CC3OC2C(c2ccc(OCCN4CCCC4)cc2)=C3c2ccc(O)cc2)cc1 (stereo not given)
- Activity [1]: 9.47%
- Activity [2]: 53.55%
- Activity [3]: 52.5%
- Activity [4]: Active
- inhibition [5]: Active
- Activity [6]: 78.57%
- Activity [7]: 63.9%
- Activity [8]: inactive
- Activity [9]: 13%
- Activity [10]: Active
- Activity [11]: 71.9%
- Activity [12]: 36%
- Activity [13]: 20.6%
- Activity [14]: Active
- Activity [15]: Active
- Activity [16]: 23.3%
- Activity [20]: 83.71%
